Patent US20040110138A1, “Method for the detection of multiple genetic targets” (University of Ottawa, priority 2002, published 2004)

Test system: coagulase-negative Staphylococci (CoNS)
Assay: Oxacillin MIC by agar dilution (NCCLS M100-S10, M7), isolate retest
Format: cell-based
Experimental: Blood culture bottles that were flagged as positive by the BacT/Alert system (Organon Teknika Corp., Durham N.C.) were processed by the Microbiology laboratory using standard microbiologic methods (Kloos & Bannerman, 1999). S. aureus was identified by a positive tube coagulase test. Oxacillin susceptibility for S. aureus was determined using the oxacillin salt agar screen method (NCCLS M100-S10, M7) and for coagulase-negative Staphylococci (CoNS) using disk diffusion testing (NCCLS M100-S10, M2).
In cases where there were discrepancies between the mecA PCR result of the blood culture bottle contents and the initial susceptibility result for the isolate recovered from the bottle, the isolate was re-tested for the mecA gene, oxacillin MIC was determined by agar dilution (NCCLS M100-S10, M7) and disk diffusion testing for oxacillin was repeated (NCCLS M100-S10, M2).

Cc1onc(-c2ccccc2)c1C(=O)N[C@@H]1C(=O)N2[C@@H]1SC(C)(C)[C@@H]2C(=O)O [Oxacillin]
Oxacillin MIC (isolate from bottle 8, initially reported as MS-CoNS): 2.0 | Oxacillin MIC (isolate from bottle 10, initially reported as MR-CoNS): 0.5
